In patent US20220324835A1 (Nurix Therapeutics, Inc., priority 2018, published 2022):

Experiments:
Cbl-b [1] = target: T1, Cbl-b (Homo sapiens, UniProt Q13191); test: Cbl-b inhibition assay (Cbl-b activity assay, FRET, Biological Example 1; 100 mM NaCl, 60 nM Src kinase); assay type: biochemical; conditions: upper bound stated in text lists; read-out: IC50 values in the Cbl-b inhibition assay of Biological Example 1
Procedure, shortened: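 Binding-based Cbl-b activity assay. Src-phosphorylated, N-terminally biotin-Avi-tagged Cbl-b recruits labelled UbcH5B-Ub, and proximity to streptavidin-terbium yields FRET.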

T-cell [2] = test: IL-2 secretion from T-cells co-stimulated with anti-CD3 and anti-CD28 antibody (Biological Example 2); assay type: cell-based, human; conditions: Homo sapiens, T-cell, primary human total T-cells, baseline = anti-CD3/anti-CD28 stimulated cells without inhibitor, read-out: IL-2 secretion, Anti-CD3/Anti-CD28 stimulation, fold change over baseline; for fold induction at 0.3 µM: 0.3 μM compound; for fold induction at 1 µM: 1 μM compound; for fold induction at 4 µM: 4 μM compound
Procedure, shortened: (§1)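 T-cells were stimulated with anti-CD3 antibody alone or with anti-CD28 antibody, in the presence or absence of Cbl-b inhibitor. IL-2 secretion or CD25 surface staining was measured, and values expressed as fold over the uninhibited baseline […].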

T-cell [3] = test: CD25 cell surface staining on T-cells co-stimulated with anti-CD3 and anti-CD28 antibody (Biological Example 2); assay type: cell-based, human; conditions: Homo sapiens, T-cell, primary human total T-cells, baseline = anti-CD3/anti-CD28 stimulated cells without inhibitor, read-out: CD25 staining, Anti-CD3/Anti-CD28 stimulation, fold change over baseline; for fold induction at 0.3 µM: 0.3 μM compound; for fold induction at 1 µM: 1 μM compound; for fold induction at 4 µM: 4 μM compound
Procedure, shortened: as §1

Cbl-b [4] = target: T1, Cbl-b; test: Cbl-b activity assay (Cbl-b inhibition assay), TR-FRET of Cbl-b interaction with UbcH5B-Ub; assay type: biochemical; conditions: assay buffer with 100 mM NaCl, 60 nM Src kinase; read-out: Cbl-b activity IC50
Procedure, shortened: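 UbcH5B (C85K) conjugated to N-terminally Bodipy-Fluorescein-labeled ubiquitin served as the fluorescent partner. After compound preincubation, Src kinase (60 nM) with 1 mM ATP and 5 mM MgCl2 (final) was added for 1.5 h, followed by a further 1 h incubation. Some values were obtained with 50 mM NaCl and 30 nM Src.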

T-cell [5] = test: IL-2 secretion from T-cells stimulated with anti-CD3 antibody alone (Biological Example 2); assay type: cell-based; conditions: primary human total T-cells, read-out: IL-2 secretion, Anti-CD3 stimulation, fold change over baseline; for fold induction at 1 µM: 1 μM compound; for fold induction at 8 µM: 8 μM compound
T-cell [6] = test: CD25 cell surface staining on T-cells stimulated with anti-CD3 antibody alone (Biological Example 2); assay type: cell-based; conditions: primary human total T-cells, baseline = anti-CD3/anti-CD28 stimulated cells without inhibitor, read-out: CD25 staining, Anti-CD3 stimulation, fold change over baseline; for fold induction at 1 µM: 1 μM compound; for fold induction at 8 µM: 8 μM compound

T1 sequence (Q13191 36-427): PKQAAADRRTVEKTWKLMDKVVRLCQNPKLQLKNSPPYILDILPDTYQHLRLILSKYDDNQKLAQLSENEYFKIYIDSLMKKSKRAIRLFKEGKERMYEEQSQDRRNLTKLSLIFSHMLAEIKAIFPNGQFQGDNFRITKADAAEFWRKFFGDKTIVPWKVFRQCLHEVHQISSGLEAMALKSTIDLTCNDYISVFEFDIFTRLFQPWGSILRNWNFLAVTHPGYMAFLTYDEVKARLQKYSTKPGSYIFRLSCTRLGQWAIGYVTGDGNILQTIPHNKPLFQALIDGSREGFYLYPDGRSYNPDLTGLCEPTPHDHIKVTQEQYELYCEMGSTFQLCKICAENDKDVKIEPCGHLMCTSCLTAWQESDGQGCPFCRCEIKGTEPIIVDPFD

SMILES | IC50 (Cbl-b [1]) | fold induction at 0.3 µM (T-cell [2]) | fold induction at 1 µM (T-cell [2]) | fold induction at 0.3 µM (T-cell [3]) | fold induction at 1 µM (T-cell [3]) | IC50 (Cbl-b [4]) | fold induction at 1 µM (T-cell [5]) | fold induction at 1 µM (T-cell [6]) | fold induction at 4 µM (T-cell [2]) | fold induction at 4 µM (T-cell [3]) | fold induction at 8 µM (T-cell [5]) | fold induction at 8 µM (T-cell [6])
CN1CCN(c2cc3c(c(C(F)(F)F)c2)CN(c2cccc(C4(Cc5nncn5C)COC4)c2)C3=O)C(=O)C1 [Compound 391, 6-(4-Methyl-2-oxopiperazin-1-yl)-2-(3-(3-((4-methyl-4H-1,2,4-triazol-3-yl)methyl)oxetan-3-yl)phenyl)-4-(trifluoromethyl)isoindolin-1-one] | ≤ 100 nM | 1.01 to 2.5 | 1.01 to 2.5 | 1.01 to 1.3 | 1.01 to 1.3 | < 100 nM | 0.051 to 0.1 | 0.801 to 1 |  |  |  | 
C[C@H](Cc1nncn1C)c1cccc(N2Cc3c(cc([C@H](C)N4CC[C@H](F)C4)cc3C(F)(F)F)C2=O)c1 [Compound 404, 6-((S)-1-((S)-3-fluoropyrrolidin-1-yl)ethyl)-2-(3-((R)-1-(4-methyl-4H-1,2,4-triazol-3-yl)propan-2-yl)phenyl)-4-(trifluoromethyl)isoindolin-1-one] | ≤ 100 nM | > 7.5 | > 7.5 | 1.31 to 1.5 | 1.31 to 1.5 | < 100 nM | > 0.201 | > 1 | > 7.5 | 1.31 to 1.5 | > 0.201 | > 1
C[C@H](Cc1nncn1C)c1cccc(N2Cc3c(cc([C@@H](C)N4CC(O)C4)cc3C(F)(F)F)C2=O)c1 [Compound 405, 6-((R)-1-(3-hydroxyazetidin-1-yl)ethyl)-2-(3-((R)-1-(4-methyl-4H-1,2,4-triazol-3-yl)propan-2-yl)phenyl)-4-(trifluoromethyl)isoindolin-1-one] | ≤ 100 nM | 2.51 to 5 | 5 to 7.5 | 1.01 to 1.3 | 1.31 to 1.5 | < 100 nM | > 0.201 | 0.801 to 1 | > 7.5 | 1.31 to 1.5 | > 0.201 | > 1
C[C@H](Cc1nncn1C)c1cccc(N2Cc3c(cc([C@H](C)N4CC(O)C4)cc3C(F)(F)F)C2=O)c1 [Compound 406, 6-((S)-1-(3-hydroxyazetidin-1-yl)ethyl)-2-(3-((R)-1-(4-methyl-4H-1,2,4-triazol-3-yl)propan-2-yl)phenyl)-4-(trifluoromethyl)isoindolin-1-one] | ≤ 100 nM | 5 to 7.5 | > 7.5 | 1.01 to 1.3 | 1.31 to 1.5 | < 100 nM | > 0.201 | > 1 | > 7.5 | 1.31 to 1.5 | > 0.201 | > 1
Cn1cnnc1[C@@H]1C[C@@H]1c1cccc(N2Cc3c(cc(CN4CC[C@H](F)C4)cc3C(F)(F)F)C2=O)c1 [Compound 409, 6-(((S)-3-fluoropyrrolidin-1-yl)methyl)-2-(3-((1S,2R)-2-(4-methyl-4H-1,2,4-triazol-3-yl)cyclopropyl)phenyl)-4-(trifluoromethyl)isoindolin-1-one] | ≤ 100 nM | 2.51 to 5 | > 7.5 | 1.31 to 1.5 | 1.31 to 1.5 | < 100 nM | > 0.201 | > 1 | > 7.5 | 1.51 to 1.75 | > 0.201 | > 1
Cn1cnnc1CC1(c2cccc(N3Cc4c(cc(CN5C[C@@H](F)[C@@H](F)C5)cc4C(F)(F)F)C3=O)c2)COC1 [Compound 414, 6-((cis-3,4-Difluoropyrrolidin-1-yl)methyl)-2-(3-(3-((4-methyl-4H-1,2,4-triazol-3-yl)methyl)oxetan-3-yl)phenyl)-4-(trifluoromethyl)isoindolin-1-one] | ≤ 100 nM | > 7.5 | > 7.5 | 1.31 to 1.5 | 1.31 to 1.5 | < 100 nM | 0.151 to 0.2 | 0.801 to 1 | > 7.5 | 1.51 to 1.75 | > 0.201 | > 1
C[C@H](c1cc2c(c(C(F)(F)F)c1)CN(c1cccc(C3(Cc4nncn4C)COC3)c1)C2=O)N1CCC(F)(F)C1 [Compound 419, (R)-6-(1-(3,3-difluoropyrrolidin-1-yl)ethyl)-2-(3-(3-((4-methyl-4H-1,2,4-triazol-3-yl)methyl)oxetan-3-yl)phenyl)-4-(trifluoromethyl)isoindolin-1-one] | ≤ 100 nM | 2.51 to 5 | > 7.5 | 1.01 to 1.3 | 1.31 to 1.5 | < 100 nM | 0.151 to 0.2 | > 1 | > 7.5 | 1.31 to 1.5 | > 0.201 | > 1
C[C@@H](c1cc2c(c(C(F)(F)F)c1)CN(c1cccc(C3(Cc4nncn4C)COC3)c1)C2=O)N1CCC(F)(F)C1 [Compound 420, (S)-6-(1-(3,3-difluoropyrrolidin-1-yl)ethyl)-2-(3-(3-((4-methyl-4H-1,2,4-triazol-3-yl)methyl)oxetan-3-yl)phenyl)-4-(trifluoromethyl)isoindolin-1-one] | ≤ 100 nM | 2.51 to 5 | > 7.5 | 1.31 to 1.5 | 1.31 to 1.5 | < 100 nM | 0.151 to 0.2 | > 1 | > 7.5 | 1.31 to 1.5 | > 0.201 | > 1
Cn1cnnc1CC1(c2cccc(N3Cc4c(cc(CN5CC(C#N)C5)cc4C(F)(F)F)C3=O)c2)COC1 [Compound 423, 1-((2-(3-(3-((4-methyl-4H-1,2,4-triazol-3-yl)methyl)oxetan-3-yl)phenyl)-3-oxo-7-(trifluoromethyl)isoindolin-5-yl)methyl)azetidine-3-carbonitrile] | ≤ 100 nM | 2.51 to 5 | 5 to 7.5 | 1.01 to 1.3 | 1.01 to 1.3 | < 100 nM | 0.151 to 0.2 | 0.801 to 1 | > 7.5 | 1.31 to 1.5 | > 0.201 | > 1
Cn1cnnc1CC1(c2cccc(N3Cc4c(cc(CN5CC(C)(F)C5)cc4C(F)(F)F)C3=O)c2)COC1 [Compound 424, 6-((3-fluoro-3-methylazetidin-1-yl)methyl)-2-(3-(3-((4-methyl-4H-1,2,4-triazol-3-yl)methyl)oxetan-3-yl)phenyl)-4-(trifluoromethyl)isoindolin-1-one] | ≤ 100 nM | > 7.5 | > 7.5 | 1.31 to 1.5 | 1.51 to 1.75 | < 100 nM | > 0.201 | > 1 | > 7.5 | 1.51 to 1.75 | > 0.201 | > 1
